PubChem BioAssay AID608 (Sanford-Burnham Center for Chemical Genomics, 2007)
The source made the active and inactive calls. How the calls were made is not given here.

biological target: Peptidyl-prolyl cis-trans isomerase FKBP1A (Homo sapiens) (UniProt P62942); assay: FKBP12 binders, biophysical, NMR detection (AID 608); details: NMR binding, purified FKBP12
Sequence (P62942 whole entry, looked up): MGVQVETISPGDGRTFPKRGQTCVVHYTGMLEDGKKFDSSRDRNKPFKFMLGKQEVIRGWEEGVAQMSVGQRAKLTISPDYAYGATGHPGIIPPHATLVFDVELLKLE

SMILES | Kd
O=C(CSc1ccccc1)N1CCOCC1 | 0.0235 mM
Cc1cc(=O)[nH]c(N2CCN(Cc3ccccc3)CC2)n1 | > 4 mM (inactive)
CC(NC(=O)C1CCCCC1)C(=O)NC1=NCCS1 (centres undefined) | > 4 mM (inactive)
O=C(c1sc2cc(F)ccc2c1Cl)N1CCOCC1 | inactive
O=C(O)CS(=O)(=O)c1ccccc1 | > 4 mM (inactive)
OCCCc1nc2ccc(C(F)(F)F)cc2[nH]1 | > 4 mM (inactive)
Cc1cc(/C=N/O)nc(=O)[nH]1 | > 4 mM (inactive)
Cc1nnsc1C(=O)Nc1ccc(C(N)=O)cc1 | > 4 mM (inactive)
CC(C)=CCCC1(C)C=Cc2c(O)c3c(c(CC=C(C)C)c2O1)OC12C(=CCCC1C(C)(C)O[C@@]2(C/C=C(\C)C(=O)O)C(=O)O)C3=O (some centres undefined) | > 4 mM (inactive)
Cc1nc(-c2cc(C(=O)O)no2)cs1 | > 4 mM (inactive)
O=C(O)c1cc(=O)c2cccc(O)c2[nH]1 | > 4 mM (inactive)
CNC(=O)Oc1ccc2c(c1)[C@]1(C)CCN(C)[C@@H]1N2C | > 4 mM (inactive)
COC1=CC(C)[C@@H]2C[C@H]3OC(=O)C[C@H]4C(C)=C(OC)C(=O)C([C@@]34C)[C@@]2(C)C1=O (some centres undefined) | > 4 mM (inactive)
CC(C)c1ccc2c(c1)CCC1C(C)(C(N)=O)CCCC21C (centres undefined) | > 4 mM (inactive)
O=c1[nH]cc(NC(=S)N2CCOCC2)c(=O)[nH]1 | > 4 mM (inactive)
C/C=C(/C)C(=O)O[C@@H]1Cc2c(ccc3ccc(=O)oc23)OC1(C)C | > 4 mM (inactive)
COc1ccc(C(=O)CC(=O)O)c2c1C=CC(C)(C)O2 | > 4 mM (inactive)
CC(=O)Nc1sccc1C(N)=O | > 4 mM (inactive)
O=S1(=O)CCC(NC(=S)N2CCOCC2)C1 (centres undefined) | 0.0474 mM
CC(NC(=O)c1ccco1)C1CCCO1 (centres undefined) | > 4 mM (inactive)

SMILES | Kd
NC(=O)c1ccccc1NC(=O)C1CC1 | > 4 mM (inactive)
O=C1NCC(=O)N2CCc3ccccc3C12 (centres undefined) | > 4 mM (inactive)
OCc1ccc(N2CCOCC2)nc1 | > 4 mM (inactive)
COc1ccc(C)cc1S(=O)(=O)NC1CCCC1 | > 4 mM (inactive)
CC(O)(C(=O)O)c1ccccc1 (centres undefined) | > 4 mM (inactive)
CC(=O)CC(=O)N1C(O)CC[N+]1(C)C (centres undefined) | > 4 mM (inactive)
CCCc1nc2ccccc2c2nc(N)nn12 | > 4 mM (inactive)
O=C1NC(=O)/C(=C\c2ccco2)S1 | > 4 mM (inactive)
O=C1CSC(=O)N1c1cccc(O)c1 | > 4 mM (inactive)
Cc1cc(C)nc(Nc2n[nH]c(Cc3ccccc3)n2)n1 | > 4 mM (inactive)
Nc1ccc2[nH]ccc2c1 | > 4 mM (inactive)
CCOC(=O)c1c(C)nc2ccccn12 | > 4 mM (inactive)
O=C(OCc1c(F)cccc1Cl)c1cnccn1 | > 4 mM (inactive)
CC(=O)Nc1nc2c(s1)C(=O)NCCC2 | > 4 mM (inactive)
Cc1nn2c(nc1=O)SCC(c1ccccc1)=N2 | > 4 mM (inactive)
O=C1Cc2ccccc2N1c1ccccc1 | > 4 mM (inactive)
O=C1Nc2ccccc2C12OCCO2 | > 4 mM (inactive)
O=C(Nc1ccccc1C(F)(F)F)c1cnccn1 | > 4 mM (inactive)
COc1cc(O)c(C)c(O)c1 | > 4 mM (inactive)
O=S(=O)(N1CCOCC1)n1cnc2ccccc21 | inactive

SMILES | Kd
NC(=O)c1ccc(N=Cc2ccc[nH]2)cc1 | > 4 mM (inactive)
C[C@H]1OC(O[C@H]2[C@@H](O)CC(O[C@H]3[C@@H](O)C[C@H](O[C@H]4CC[C@]5(C)C6CC[C@]7(C)[C@@H](C8=CC(=O)OC8)[C@@H](O)C[C@]7(O)[C@@H]6CC[C@@H]5C4)O[C@@H]3C)O[C@@H]2C)C[C@H](O)C1O (some centres undefined) | > 4 mM (inactive)
O=C(O)/C=C1\NC(=O)c2ccccc21 | > 4 mM (inactive)
CC1(C)CC23C(=O)CCC(O)C2(C)CCC13 (centres undefined) | > 4 mM (inactive)
NCc1ccc(-c2ccccn2)s1 | > 4 mM (inactive)
COc1ccccc1NC(=O)c1ccc(C)s1 | > 4 mM (inactive)
O=C(Cn1c(-c2cscn2)nc2ccccc21)Nc1ccc(Oc2ccc(F)cc2)cc1 | > 4 mM (inactive)
OCc1c[nH]c2ccccc12 | > 4 mM (inactive)
c1ccc2c(c1)ncn2CCn1cnc2ccccc21 | > 4 mM (inactive)
O=C1CSC(c2ccc3c(c2)OCO3)N1 (centres undefined) | > 4 mM (inactive)
Oc1ccc(C2SCCS2)cc1 | > 4 mM (inactive)
CCc1c(C(=O)Nc2ccncc2)csc1C | > 4 mM (inactive)
c1n[nH]cc1-c1cn[nH]c1 | > 4 mM (inactive)
Cn1c(CN2CC(c3ccccc3)CC2=O)n[nH]c1=S (centres undefined) | > 4 mM (inactive)
NC(=O)CSc1ccc(-c2ccco2)nn1 | > 4 mM (inactive)
O=C(c1cccs1)N1CCCc2ccccc21 | > 4 mM (inactive)
COc1ccc2c(c1)OCC(Cc1ccc(OC)c(OC(C)=O)c1)C2=O (centres undefined) | > 4 mM (inactive)
COC(=O)CC1SC(=O)NC1=O (centres undefined) | > 4 mM (inactive)
COc1ccc2c(c1OC)C(=O)O[C@@H]2[C@@H]1c2cc3c(cc2CCN1C)OCO3 | > 4 mM (inactive)
